target: T1, androgen receptor (AR) (Homo sapiens, UniProt P10275); assay: Degradation of androgen receptor (AR) protein in VCaP cells by Western blot; assay type: cell-based; conditions: percentage of degraded AR at 100 nM, VCaP cells, 16 h
T1 sequence (P10275 1-920): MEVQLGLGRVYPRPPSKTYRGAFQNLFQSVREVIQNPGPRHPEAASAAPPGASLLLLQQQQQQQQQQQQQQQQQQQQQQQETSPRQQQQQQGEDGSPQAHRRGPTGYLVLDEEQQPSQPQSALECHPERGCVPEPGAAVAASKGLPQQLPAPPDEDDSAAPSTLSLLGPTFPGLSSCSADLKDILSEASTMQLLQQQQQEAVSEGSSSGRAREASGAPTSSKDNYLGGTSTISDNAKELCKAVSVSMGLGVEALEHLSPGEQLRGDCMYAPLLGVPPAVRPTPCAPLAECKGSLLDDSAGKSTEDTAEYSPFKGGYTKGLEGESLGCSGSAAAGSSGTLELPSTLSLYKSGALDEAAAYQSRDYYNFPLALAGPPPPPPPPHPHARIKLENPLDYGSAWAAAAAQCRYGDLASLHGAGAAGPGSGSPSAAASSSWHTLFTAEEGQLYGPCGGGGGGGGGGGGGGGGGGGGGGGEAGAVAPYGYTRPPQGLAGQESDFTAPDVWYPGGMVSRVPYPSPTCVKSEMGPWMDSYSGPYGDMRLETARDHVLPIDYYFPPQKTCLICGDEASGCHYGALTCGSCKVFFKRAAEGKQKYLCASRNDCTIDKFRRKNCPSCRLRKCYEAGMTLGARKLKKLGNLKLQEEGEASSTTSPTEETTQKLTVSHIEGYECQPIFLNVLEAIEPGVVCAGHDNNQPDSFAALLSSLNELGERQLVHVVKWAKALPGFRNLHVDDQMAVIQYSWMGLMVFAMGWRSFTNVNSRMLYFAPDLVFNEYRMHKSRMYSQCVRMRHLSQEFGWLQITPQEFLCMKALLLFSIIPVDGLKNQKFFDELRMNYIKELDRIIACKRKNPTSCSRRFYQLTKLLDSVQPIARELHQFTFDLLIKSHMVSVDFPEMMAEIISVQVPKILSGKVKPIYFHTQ
Protocol: Determination of the Degradation Activity of the Compound on Androgen Receptor (AR) Protein by Western Blot
1) VCaP cells were subcultured in cell culture media, and then the cells in good growth condition were seeded in a 12-well plate at 1 ml/well (5×10^5 cells/well), and cultured overnight in a 37° C., 5% CO2 cell incubator. 2) The test compound was prepared into a 10 mM stock solution with dimethyl sulfoxide (DMSO). Prior to use, the solution was diluted 3 times with DMSO. […] of the diluted compound solution was added to the cell culture well (ensuring that the DMSO concentration in the culture system was 0.1%), and two wells were set for each concentration. The plate was gently shaken to mix. In addition, the experiment included negative control wells (containing equal amount of DMSO) and positive control wells. 3) After culturing 16 h. the cells were lysed with RIPA cell lysate, and the protein was extracted. The protein concentration was measured with BCA kit. 5-fold concentrated protein loading buffer was added, and after heated at 100° C. for 5 min. the sample was stored at −20° C. 4) for each well, 30 μg of protein was loaded on polyacrylamide gel for electrophoresis. 5) The protein was transferred from polyacrylamide gel to PVDF membrane, and then 5% skim milk was added to close for 1 h at room temperature. The first antibody (Androgen Receptor (D6F11) XP Rabbit mAb and Anti-β-Actin Rabbit mAb) was added and incubated overnight at 4° C. The membrane was washed with TBST solution three times. 10 min for each time. The secondary antibody (horseradish peroxidase labeled goat […]) was added and incubated at room temperature for 2 h, and then the membrane was washed with TBST solution three times. 10 min for each time.
Finally, ECL chemiluminescence solution was added, and then photos were taken with automatic chemiluminescence instrument to collect pictures for analysis.

Question: For `N#Cc1ccc(O[C@H]2CC[C@H](NC(=O)c3nnc(N4CC5(CCN(CC6CCN(c7ccc8c(c7)C(=O)N(C7CCC(=O)NC7=O)C8=O)CC6)CC5)C4)s3)CC2)cc1Cl` (stereo partly shown) [Compound 105, N-((1r,4r)-4-(3-chloro-4-cyanophenoxy)cyclohexyl)-5-(7-((1-(2-(2,6-dioxopiperidin-3-yl)-1,3-dioxoisoindolin-5-yl)piperidine-4-yl)methyl)-2,7-diazaspiro[3.5]nonan-2-yl)-1,3,4-thiadiazole-2-carboxamide], which inhibition at 0.1 µM is on record?
Answer: 50 to 79%

Question: With `N#Cc1ccc(OC2CC3(CC(NC(=O)c4ccc(N5CCC(CN6CCN(c7ccc8c(c7)C(=O)N(C7CCC(=O)NC7=O)C8=O)CC6)CC5)nn4)C3)C2)cc1Cl` (stereo not shown) [Compound 109] as the molecule, how does the inhibition at 0.1 µM read?
Answer: < 25%

Question: `N#Cc1ccc(O[C@H]2CC[C@H](NC(=O)c3ccc(N4CCC(O[C@@H]5CCN(c6ccc7c(c6)C(=O)N(C6CCC(=O)NC6=O)C7=O)C5)CC4)cc3)CC2)cc1Cl` (stereo partly shown) [Compound 111] was tested. Which inhibition at 0.1 µM did it give?
Answer: < 25%

Question: `N#Cc1ccc(O[C@H]2CC[C@H](NC(=O)c3ccc(N4CCC(NC5CCN(c6ccc7c(c6)C(=O)N(C6CCC(=O)NC6=O)C7=O)CC5)CC4)nn3)CC2)cc1Cl` (stereo partly shown) [Compound 118, N-((1r,4r)-4-(3-chloro-4-cyanophenoxy)cyclohexyl)-6-(4-((1-(2-(2,6-dioxopiperidin-3-yl)-1,3-dioxoisoindolin-5-yl)piperidine-4-yl)amino)piperidin-1-yl)pyridazine-3-amide] was tested. Which inhibition at 0.1 µM did it give?
Answer: 25 to 49%

Question: `N#Cc1ccc(OC2CC3(C2)CN(C(=O)c2ccc(N4CCC(CN5CCN(c6ccc7c(c6)C(=O)N(C6CCC(=O)NC6=O)C7=O)CC5)CC4)nn2)C3)cc1Cl` (stereo not shown) [Compound 120, 2-chloro-4-((2-(6-(4-((4-(2-(2,6-dioxopiperidin-3-yl)-1,3-dioxoisoindolin-5-yl)piperazin-1-yl)methyl)piperidin-1-yl)pyridazine-3-carbonyl)-2-azaspiro[3.3]heptan-6-yl)oxy)benzonitrile] was tested. Which inhibition at 0.1 µM did it give?
Answer: < 25%

Question: `N#Cc1ccc(O[C@H]2CC[C@H](NC(=O)c3ccc(N4CC(CN5CC6CN(c7cc8c(cc7F)C(=O)N(C7CCC(=O)NC7=O)C8=O)CC6C5)C4)nn3)CC2)cc1Cl` (stereo partly shown) [Compound 137] was tested. Which inhibition at 0.1 µM did it give?
Answer: 50 to 79%

Question: Which inhibition at 0.1 µM does the source give for `N#Cc1ccc(O[C@H]2CC[C@H](NC(=O)c3cnc(N4CC(CN5CC6CN(c7cc8c(cc7F)C(=O)N(C7CCC(=O)NC7=O)C8=O)CC6C5)C4)cn3)CC2)cc1Cl` (stereo partly shown) [Compound 138] here?
Answer: 25 to 49%

Question: How did the inhibition at 0.1 µM turn out when `N#Cc1ccc(O[C@H]2CC[C@H](NC(=O)c3ccc(N4CCC(CN5CCC(Nc6cc7c(cc6F)C(=O)N(C6CCC(=O)NC6=O)C7=O)CC5)CC4)nn3)CC2)cc1Cl` (stereo partly shown) [Compound 139] was run?
Answer: > 80%

Question: Which inhibition at 0.1 µM does the source give for `N#Cc1ccc(O[C@H]2CC[C@H](NC(=O)c3cnc(N4CC(CN5CC6CN(c7cc8c(cc7F)C(=O)N(C7CCC(=O)NC7=O)C8=O)CC6C5)C4)nc3)CC2)cc1Cl` (stereo partly shown) [Compound 140] here?
Answer: 25 to 49%

Question: With `N#Cc1ccc(O[C@H]2CC[C@H](NC(=O)c3cnc(N4CCC(CN5CCC6(CCN(c7cc8c(cc7F)C(=O)N(C7CCC(=O)NC7=O)C8=O)C6)C5)CC4)cn3)CC2)cc1Cl` (stereo partly shown) [Compound 141] as the molecule, how does the inhibition at 0.1 µM read?
Answer: > 80%

Question: `N#Cc1ccc(O[C@H]2CC[C@H](NC(=O)c3ccc(N4CCC(CN5CCC6(CCN(c7cc8c(cc7F)C(=O)N(C7CCC(=O)NC7=O)C8=O)C6)C5)CC4)nn3)CC2)cc1Cl` (stereo partly shown) [Compound 142, N-((1r,4r)-4-(3-chloro-4-cyanophenoxy)cyclohexyl)-6-(4-((7-(2-(2,6-dioxopiperidin-3-yl)-6-fluoro-1,3-dioxoisoindol-5-yl)-2,7-diazaspiro[4.4]nonan-2-yl)methyl)piperidin-1-yl)pyridazine-3-formamide] was tested. Which inhibition at 0.1 µM did it give?
Answer: > 80%

Question: With `N#Cc1ccc(O[C@H]2CC[C@H](NC(=O)c3ccc(N4CCC(CN5CCC(Nc6ccc7c(c6)C(=O)N(C6CCC(=O)NC6=O)C7=O)CC5)CC4)nn3)CC2)cc1Cl` (stereo partly shown) [Compound 143] as the molecule, how does the inhibition at 0.1 µM read?
Answer: > 80%

Question: `N#Cc1ccc(O[C@H]2CC[C@H](NC(=O)c3cnc(N4CCC(CN5CCC(Nc6cc7c(cc6F)C(=O)N(C6CCC(=O)NC6=O)C7=O)CC5)CC4)cn3)CC2)cc1Cl` (stereo partly shown) [Compound 145] was tested. Which inhibition at 0.1 µM did it give?
Answer: > 80%

Question: Which inhibition at 0.1 µM does the source give for `N#Cc1ccc(O[C@H]2CC[C@H](NC(=O)c3cnc(N4CCC(CN5CCC(Nc6ccc7c(c6)C(=O)N(C6CCC(=O)NC6=O)C7=O)CC5)CC4)cn3)CC2)cc1Cl` (stereo partly shown) [Compound 146] here?
Answer: > 80%

Question: `N#Cc1ccc(O[C@H]2CC[C@H](NC(=O)c3cnc(N4CC5CN(CC6CCN(c7cc8c(cc7F)C(=O)N(C7CCC(=O)NC7=O)C8=O)CC6)CC5C4)cn3)CC2)cc1Cl` (stereo partly shown) [Compound 157] was tested. Which inhibition at 0.1 µM did it give?
Answer: > 80%

Question: With `N#Cc1ccc(O[C@H]2CC[C@H](NC(=O)c3cnc(N4CC5CN(CC6CN(c7cc8c(cc7F)C(=O)N(C7CCC(=O)NC7=O)C8=O)C6)CC5C4)cn3)CC2)cc1Cl` (stereo partly shown) [Compound 159] as the molecule, how does the inhibition at 0.1 µM read?
Answer: 50 to 79%

Question: With `N#Cc1ccc(O[C@H]2CC[C@H](NC(=O)c3ccc(N4CC5CN(CC6CN(c7cc8c(cc7F)C(=O)N(C7CCC(=O)NC7=O)C8=O)C6)CC5C4)nn3)CC2)cc1Cl` (stereo partly shown) [Compound 160] as the molecule, how does the inhibition at 0.1 µM read?
Answer: < 25%

Question: `CC1(C)[C@H](NC(=O)c2ccc(N3CC4CN(CC5CN(c6cc7c(cc6F)C(=O)N(C6CCC(=O)NC6=O)C7=O)C5)CC4C3)nn2)C(C)(C)[C@H]1Oc1ccc(C#N)c(Cl)c1` (stereo partly shown) [Compound 161, N-((1r,3r)-3-(3-chloro-4-cyanophenoxy)-2,2,4,4-tetramethylcyclobutyl)-6-(5-((1-(2-(2,6-dioxopiperidin-3-yl)-6-fluoro-1,3-dioxoisoindolin-5-yl)azelaic acid-3-yl)methyl)hexahydropyrrolo[3,4-c]pyrrol-2(1H)-pyrazole)formamide] was tested. Which inhibition at 0.1 µM did it give?
Answer: 50 to 79%

Question: For `N#Cc1ccc(O[C@H]2CC[C@H](NC(=O)c3ccc(N4CCC5(CCN(CC6CCN(c7cc8c(cc7F)C(=O)N(C7CCC(=O)NC7=O)C8=O)CC6)C5)C4)nn3)CC2)cc1Cl` (stereo partly shown) [Compound 162, N-((1r,4r)-4-(3-chloro-4-cyanophenoxy)cyclohexyl)-6-(7-((1-(2-(2,6-dioxopiperidin-3-yl)-6-fluoro-1,3-dioxoisoindolin-5-yl)piperidine-4-yl)methyl)-2,7-diazaspiro[4.4]nonan-2-yl)pyridazine-3-formamide], which inhibition at 0.1 µM is on record?
Answer: > 80%

Question: With `N#Cc1ccc(O[C@H]2CC[C@H](NC(=O)c3cnc(N4CCC5(CCN(CC6CCN(c7cc8c(cc7F)C(=O)N(C7CCC(=O)NC7=O)C8=O)CC6)C5)C4)cn3)CC2)cc1Cl` (stereo partly shown) [Compound 163] as the molecule, how does the inhibition at 0.1 µM read?
Answer: > 80%

Question: With `N#Cc1ccc(O[C@H]2CC[C@H](NC(=O)c3ccc(N4CCC(N5CCC6(CCN(c7cc8c(cc7F)C(=O)N(C7CCC(=O)NC7=O)C8=O)C6)C5)CC4)nn3)CC2)cc1Cl` (stereo partly shown) [Compound 164, N-((1r,4r)-4-(3-chloro-4-cyanophenoxy)cyclohexyl)-6-(4-(7-(2-(2,6-dioxopiperidin-3-yl)-6-fluoro-1,3-dioxoisoindol-5-yl)-2,7-diazaspiro[4.4]nonan-2-yl)piperidin-1-yl)pyridazine-3-formamide] as the molecule, how does the inhibition at 0.1 µM read?
Answer: > 80%

Question: Which inhibition at 0.1 µM does the source give for `N#Cc1ccc(O[C@H]2CC[C@H](NC(=O)c3cnc(N4CCC(N5CCC6(CCN(c7cc8c(cc7F)C(=O)N(C7CCC(=O)NC7=O)C8=O)C6)C5)CC4)cn3)CC2)cc1Cl` (stereo partly shown) [Compound 165, N-((1r,4r)-4-(3-chloro-4-cyanophenoxy)cyclohexyl)-5-(4-(7-(2-(2,6-dioxopiperidin-3-yl)-6-fluoro-1,3-dioxoisoindolin-5-yl)-2,7-diazaspiro[4.4]nonan-2-yl)piperidin-1-yl)pyrazine-2-carboxamide] here?
Answer: > 80%
